The experiment deals with bovine serum albumin (BSA) (Bos taurus, UniProt P02769). Type of experiment: binding. To be noted: slope of log((F0−F)/F) vs log[Q], Eq. 2; sensitizer 10^−6–7 × 10^−6 M.
Chain of bovine serum albumin (BSA) (P02769 25-607): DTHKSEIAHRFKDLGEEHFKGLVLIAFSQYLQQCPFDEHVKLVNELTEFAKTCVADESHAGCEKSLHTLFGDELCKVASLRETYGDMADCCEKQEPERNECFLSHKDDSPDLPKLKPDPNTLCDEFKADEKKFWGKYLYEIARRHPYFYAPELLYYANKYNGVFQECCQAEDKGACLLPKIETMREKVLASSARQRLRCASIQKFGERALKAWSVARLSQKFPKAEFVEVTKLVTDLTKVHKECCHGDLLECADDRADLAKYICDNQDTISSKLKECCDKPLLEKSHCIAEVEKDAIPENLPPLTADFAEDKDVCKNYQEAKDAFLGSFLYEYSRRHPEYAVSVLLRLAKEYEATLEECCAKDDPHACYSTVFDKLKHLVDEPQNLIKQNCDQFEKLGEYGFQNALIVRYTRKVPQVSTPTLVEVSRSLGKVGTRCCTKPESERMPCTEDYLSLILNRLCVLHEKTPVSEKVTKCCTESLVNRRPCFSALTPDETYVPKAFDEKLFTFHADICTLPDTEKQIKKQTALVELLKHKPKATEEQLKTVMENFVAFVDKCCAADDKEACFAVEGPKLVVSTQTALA

As for `C=CC1=C(C)c2cc3[nH]c(cc4nc(cc5[nH]c(cc1n2)c(C)c5CCC(=O)O)C(CCC(=O)O)=C4C)c(C)c3C=C` [PP3, Protoporphyrin IX], the “n (number of binding sites in BSA)” value is on record as 0.993 ± 0.082.
